The numbers were not newly measured in patent US5817628A, “Dynorphin a suppression of natural killer cell activity” (The Rockefeller University, priority 1992, dated 1998), which cites them from elsewhere.

This data set has as its system NK cells. The note with it: reported by other investigators.

Regarding `CN1CC[C@]23c4c5ccc(O)c4O[C@H]2[C@@H](O)C=C[C@H]3[C@H]1C5` [Morphine], the “effect on NK activity in vitro (literature)” value (from here on “effect on NK activity in vitro”) is “enhanced NK activity in one study”. As to `CCC(=O)C(CC(C)N(C)C)(c1ccccc1)c1ccccc1` (stereo not shown) [methadone], the “effect on NK activity in vitro” value is on record as “observed in vitro only at methadone concentrations many orders of magnitude higher than those observed during any clinical use of methadone”. On to Met-enkephalin, for which the “effect on NK activity in vitro” value is listed as “appears to enhance NK activity”. “β-endorphin (YGGFMTSEKSQTPLVTLFKNAIIKNAYKKGE; Beta-endorphin; UniProt P01189 237-267, looked up) [endogenous opioid]”: the “effect on NK activity in vitro” value is given as “increases NK cell activity in vitro”.
